Assay results: US11760984B2, “CRISPR protein inhibitors” (THE BROAD INSTITUTE, INC., priority 2017, dated 2023)
In brackets after ≈: the same amount, converted by molar mass. Entries after “also recorded” stand apart in the source; their conditions may differ.

Tests used:
dCas9 = experiment: dCas9-based transcriptional activation of HBG1 gene in HEK293FT cells (RT-qPCR); format: cell-based; settings: for inhibition of HBG1 transcriptional activation: HEK293FT cells, 48 hours
Experimental: Transcription activation experiments and quantitative RT-PCR analyses. For transcription activation experiments 250,000 cells/well were plated in a 12 well plate. The cells were transiently transfected with a 1:1:1 mass ratio of the dCas9 plasmid, MS2-P65-HSF1 effector plasmid and the sgRNA plasmid targeting the HBG1 gene or an RFP control plasmid. A total of 1.6 μg plasmid DNA was transfected using Lipofectamine 2000 (Life Technologies) according to manufacturer's protocol. Immediately after transfection, the cells were treated with an appropriate dose of the small molecule inhibitors for 48 hours following which the cells were harvested and RNA was extracted using the EZNA Total RNA kit I (Omega) as per manufacturer's instructions. 1 μg total cellular RNA was used to perform reverse transcription using the High-Capacity cDNA Reverse Transcription Kit (Applied Biosystems) or the qScript cDNA Synthesis Kit (QuantaBio). qPCR reactions were performed to quantify RNA expression using the TaqMan probes (Life Technologies, HBG1/HBG2: Hs00361131_g1 and ACTB: Hs01060665_g1) and TaqMan Fast Advanced Master Mix (Life Technologies) in 5 μL multiplexed reactions and 384-well format using the LightCycler 480 Instrument II (Roche). For each sample, six technical replicates were performed. Data were analyzed using the LightCycler 480 software (Roche) by the ΔΔCt method: Ct values for the gene of interest (HBG1) were normalized to Ct values for the housekeeping gene (ACTB) and fold-changes in the expression level of the gene of interest were normalized to RFP-transfected control. The data are reported as mean±S.E.M. for technical replicates.
For transcription activation experiments 250,000 cells/well were plated in a 12 well plate. […] Data were analyzed using the LightCycler 480 software (Roche) by the ΔΔCt method: Ct values for the gene of interest (HBG1) were normalized to Ct values for the housekeeping gene (ACTB) and fold-changes in the expression level of the gene of interest were normalized to RFP-transfected control. […]

U2OS.eGFP.PEST cells = experiment: Cell viability assay (ATP content), U2OS.eGFP.PEST cells; format: cell-based, human; settings: up to 20 μM, 24 h
Experimental: FIG. 22—Cell viability assay (ATP content) of U2OS.eGFP.PEST cells in the presence of compounds. Measurement ATP content of U2OS.eGFP.PEST cells upon incubating with BRD7087 and BRD5779 (5-20 μM) for 24 h. Error bars represent ±S.D. from technical replicates (n=3).
FIG. 66. Cell viability assay (ATP content) of U2OS.eGFP.PEST cells in the presence of compounds. Measurement of ATP content of U2OS.eGFP.PEST cells upon incubating with BRD7087 and BRD5779 (5-20 μM) for 24 h. Error bars represent ±S.D. from technical replicates (n=3).

SpCas9 = SpCas9 (Streptococcus pyogenes serotype M1, UniProt Q99ZW2); experiment: mCherry-GFP NHEJ assay; format: cell-based; settings: HEK293T cells; 2-10 μM; 24 h
Experimental: NHEJ assay. Approximately 8,000 cells/well were plated in a 96-well format 24 h before transiently transfected with a total 100 ng of DN66 (mCherry-TAG-GFP reporter) and DN78 (SpCas9 and gRNA) plasmids (1:1) using lipofectamine 2000 (Life Technologies) 3. Transfected cells were allowed to grow in the indicated amount of compound or DMSO for 24 h. Cells were then fixed using 4% paraformaldehyde and imaged with the HCS NuclearMask™ Blue Stain (Life Technologies) as the nuclear counter-staining agent. Imaging was performed with an IXM 137204 ImageXpress Automated High Content Microscope (Molecular Devices) at 20× magnification under three excitation channels (blue, green and red) with 9 acquiring sites per well. Images were analyzed in the MetaXpress software to determine the % NHEJ and the data were plotted using GraphPad Prism 6. The Z′-value was calculated following the formula: […]

[1] = Solubility in PBS determined by mass spectroscopy; format: physicochemical; settings: aqueous buffer, 24 h incubation at room temperature, read-out: solubility: no detectable aggregation up to
Experimental: FIG. 15—The solubility of BRD7087 compound in PBS as determined by mass spectroscopy after 24 h of incubation at room temperature. Compounds Antipyrine and Clotrimazole were used as positive controls.
FIG. 59. The solubility of BRD7087 compound in PBS as determined by Mass spectroscopy after 24 h of incubation at room temperature. Compounds Antipyrine and Clotrimazole have been used as the positive controls.

SpCas9, sequence (Q99ZW2 whole entry): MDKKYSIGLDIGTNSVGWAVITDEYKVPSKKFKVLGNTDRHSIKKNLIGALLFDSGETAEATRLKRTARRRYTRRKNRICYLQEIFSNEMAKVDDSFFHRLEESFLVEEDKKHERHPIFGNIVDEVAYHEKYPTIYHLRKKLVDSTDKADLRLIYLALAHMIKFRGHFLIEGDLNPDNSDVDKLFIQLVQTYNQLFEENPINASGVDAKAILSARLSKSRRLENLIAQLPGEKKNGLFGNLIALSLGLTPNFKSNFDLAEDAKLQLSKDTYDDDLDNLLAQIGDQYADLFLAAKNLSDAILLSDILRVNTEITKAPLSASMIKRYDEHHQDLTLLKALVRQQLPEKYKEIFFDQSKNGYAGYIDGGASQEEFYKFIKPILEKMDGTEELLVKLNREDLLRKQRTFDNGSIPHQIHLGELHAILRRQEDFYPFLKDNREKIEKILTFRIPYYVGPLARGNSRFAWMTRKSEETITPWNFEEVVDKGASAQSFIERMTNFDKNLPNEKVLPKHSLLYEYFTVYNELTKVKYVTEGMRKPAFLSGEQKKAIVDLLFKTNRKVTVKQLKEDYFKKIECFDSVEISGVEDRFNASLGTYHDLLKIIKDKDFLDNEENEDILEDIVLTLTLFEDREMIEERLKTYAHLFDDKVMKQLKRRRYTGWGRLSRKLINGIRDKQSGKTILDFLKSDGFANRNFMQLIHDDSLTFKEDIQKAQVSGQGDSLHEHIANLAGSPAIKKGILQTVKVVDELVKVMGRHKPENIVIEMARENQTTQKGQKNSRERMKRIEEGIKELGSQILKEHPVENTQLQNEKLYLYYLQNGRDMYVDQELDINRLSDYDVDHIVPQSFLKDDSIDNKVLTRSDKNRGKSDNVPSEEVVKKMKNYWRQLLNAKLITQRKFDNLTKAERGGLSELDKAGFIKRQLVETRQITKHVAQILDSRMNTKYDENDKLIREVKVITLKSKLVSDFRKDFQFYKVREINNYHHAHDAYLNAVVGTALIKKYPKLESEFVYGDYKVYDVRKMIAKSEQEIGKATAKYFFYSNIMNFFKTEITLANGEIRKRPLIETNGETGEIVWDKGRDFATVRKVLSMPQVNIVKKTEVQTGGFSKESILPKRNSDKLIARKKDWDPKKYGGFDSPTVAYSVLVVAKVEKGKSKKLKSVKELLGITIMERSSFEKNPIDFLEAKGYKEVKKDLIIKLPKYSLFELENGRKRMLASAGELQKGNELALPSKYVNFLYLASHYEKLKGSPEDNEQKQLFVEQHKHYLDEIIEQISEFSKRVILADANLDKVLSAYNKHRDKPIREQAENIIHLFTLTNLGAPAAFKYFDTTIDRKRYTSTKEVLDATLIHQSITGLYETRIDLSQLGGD

SMILES	inhibition of HBG1 transcriptional activation (dCas9)	cytotoxicity: cellular ATP-levels (U2OS.eGFP.PEST cells)	inhibition of SpCas9-mediated NHEJ (SpCas9)	solubility at 24 h [1] [µM]	inhibition of transcriptional activation (dCas9; 10 μM, HBG1 gene) [%]
COc1ccc(-c2ccc3c(c2)[C@H]2[C@H](CCN2Cc2ccncc2)[C@@H](CO)N3)cc1 [BRD5779, ((3aR,4S,9bR)-8-(4-Methoxyphenyl)-1-(pyridin-4-ylmethyl)-2,3,3a,4,5,9b-hexahydro-1H-pyrrolo[3,2-c]quinolin-4-yl)methanol]	dose-dependent inhibition	did not significantly alter the cellular ATP-levels	Dose-dependent inhibition of SpCas9-mediated NHEJ; also recorded: active	~75 (≈ 30.1 µg/mL)	–
OC[C@H]1Nc2ccc(-c3cccc(F)c3)cc2[C@H]2[C@@H]1CCN2Cc1ccncc1 [BRD7087, ((3aR,4S,9bR)-8-(3-Fluorophenyl)-1-(pyridin-4-ylmethyl)-2,3,3a,4,5,9b-hexahydro-1H-pyrrolo[3,2-c]quinolin-4-yl)methanol]	dose-dependent inhibition	did not significantly alter the cellular ATP-levels	Dose-dependent inhibition of SpCas9-mediated NHEJ; also recorded: active	~75 (≈ 29.2 µg/mL)	> 60
